In patent publication US11345702B1 (Myoforte Therapeutics, Inc., priority 2020, dated 2022):
Several values for one entry are separate records, joined by “and”; a condition that tells them apart may be missing. Identical values can stand only once.

Assays:
[1] = molecular target: 15-PGDH/HPGD (Homo sapiens (Human), UniProt P15428); experiment: hPGDH inhibitor screening biochemical assay; conditions: read-out: hPGDH: Average IC50
In short: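 Ten-point dose-response inhibition of 15-PGDH measured by fluorescence (340/485 nm) after 10 min at room temperature with PGE2 (15 μM) and NAD+ (0.25 mM), following 10 min enzyme (10 nM)–compound pre-incubation at 37 °C. Buffer: 50 mM Tris-HCl pH 7.5, 0.01% Tween 20. Percent inhibition relative to 1% DMSO; four-parameter IC50.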

[2] = Liver microsome stability assay (MLM); format: in vitro ADME; conditions: mouse liver microsomes
Procedure: A microsomal mixture (microsomes and Kphos buffer) was prepared at a concentration of 1.428 mg/mL in 2 mL tubes. To this microsomal mixture 1.6 μL (1 mM) of test compound and positive control were spiked; from this mixture, 70 μL was transferred to 96 well plate and pre-incubated at 37° C. for 5 min. After pre-incubation, the zero minute time point reaction was stopped using 100 μL of ice-cold acetonitrile containing internal standard and […] (3.33 mM in Kphos buffer) was added. The 45 minute time point reaction was initiated by addition of 30 μL of NADPH (3.33 mM in Kphos buffer) and incubated at 37° C. for 15 and 45 min. Reactions without NADPH and buffer controls (minus NADPH) at 0, 15, and 45 minutes were also incubated to rule out non-NADPH metabolism or chemical instability in the incubation buffer. Incubation reactions were stopped with 100 μL of ice-cold acetonitrile containing internal standard. The plates were centrifuged at 4000 RPM for 15 min and 100 μL aliquots were submitted for analysis by LC-MS/MS. (Verapamil in human liver microsomes (HLM) and rat liver microsomes (RLM) was used as positive controls. Imipramine in mouse liver microsomes (MLM) was used as a positive control.) Samples were monitored for parent compound disappearance in MRM mode (multiple reaction monitoring) using LC-MS/MS. The peak area ratios of analyte versus internal standard were used to calculate the % remaining at the end of 45 minutes in the presence of NADPH.

Chain of 15-PGDH/HPGD (P15428 whole entry): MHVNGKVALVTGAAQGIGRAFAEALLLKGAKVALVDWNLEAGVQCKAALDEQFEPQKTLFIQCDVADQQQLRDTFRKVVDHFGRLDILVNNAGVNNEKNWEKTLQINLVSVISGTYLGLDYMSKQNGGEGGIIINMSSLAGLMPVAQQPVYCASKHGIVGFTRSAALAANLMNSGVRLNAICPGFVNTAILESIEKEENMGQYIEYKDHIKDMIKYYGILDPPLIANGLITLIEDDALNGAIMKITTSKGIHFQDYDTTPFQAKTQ

SMILES | IC50 [1] | MLM + NADPH (% remaining at 45 min) [2] [%]
CCOC(=O)Nc1cncc(-n2ccc3cc(C(=O)N4CCC(F)(F)CC4)cnc32)c1 [MF-DH-485, ethyl (5-(5-(4,4-difluoropiperidine-1-carbonyl)-1H-pyrrolo[2,3-b]pyridin-1-yl)pyridin-3-yl)carbamate] | < 100 nM | 80
CC(C)(C)CNC(=O)c1ccc(-n2ccc3cc(C(=O)N4CCC(F)(F)CC4)cnc32)cn1 [MF-DH-438, 5-(5-(4,4-difluoropiperidine-1-carbonyl)-1H-pyrrolo[2,3-b]pyridin-1-yl)-N-neopentylpicolinamide] | < 100 nM | 63
CC(C)(C)NC(=O)c1cncc(-n2ccc3cc(C(=O)N4CCC(F)(F)CC4)cnc32)c1 [MF-DH-448, N-(tert-butyl)-5-(5-(4,4-difluoropiperidine-1-carbonyl)-1H-pyrrolo[2,3-b]pyridin-1-yl)nicotinamide] | < 100 nM | 79
NCCNC(=O)c1cccc(-n2ccc3cc(C(=O)N4CCC(F)(F)CC4)cnc32)c1 [MF-DH-467, N-(2-aminoethyl)-3-(5-(4,4-difluoropiperidine-1-carbonyl)-1H-pyrrolo[2,3-b]pyridin-1-yl)benzamide] | 100 to 1000 nM | 90
CNC(=O)c1ccc(-n2ccc3cc(C(=O)N4CCCCC4)cnc32)cc1 [MF-DH-368] | < 100 nM | 
NCc1cccc(-n2ccc3cc(C(=O)N4CCCCC4)cnc32)c1 [MF-DH-303] | 100 to 1000 nM | 
CS(=O)(=O)n1ccc2cc(C(=O)N3CCCCC3)cnc21 [MF-DH-311, (1-(methylsulfonyl)-1H-pyrrolo[2,3-b]pyridin-5-yl)(piperidin-1-yl)methanone] | ≥ 1000 nM | 
O=C(c1cnc2c(ccn2-c2cncc(Cl)c2)c1)N1CCCCC1 [MF-DH-295] | < 100 nM | 
O=C(c1cnc2c(ccn2-c2ccc(CO)cc2)c1)N1CCCCC1 [MF-DH-307] | < 100 nM | 
O=C(O)CCc1nc2cc(C(=O)N3CCCCC3)ccc2n1-c1cccc(Cl)c1 [MF-PGDH-034, 3-(1-(3-chlorophenyl)-5-(piperidine-1-carbonyl)-1H-benzo[d]imidazol-2-yl)propanoic acid] | < 100 nM | 
COc1ccc(-n2ccc3cc(C(=O)N4CCC(F)CC4)cnc32)cn1 [MF-DH-157] | < 100 nM | 
O=C(c1ccc2c(c1)ncn2-c1cccc(Cl)c1)N1CCCCCC1 [MF-PGDH-016] | < 100 nM | 
O=C(NCCO)c1cccc(-n2ccc3cc(C(=O)N4CCC(F)(F)CC4)cnc32)c1 [MF-DH-468, 3-(5-(4,4-difluoropiperidine-1-carbonyl)-1H-pyrrolo[2,3-b]pyridin-1-yl)-N-(2-hydroxyethyl)benzamide] | < 100 nM | 
CC(C)(C#Cc1ccc(-n2ccc3cc(C(=O)N4CCC(F)(F)CC4)cnc32)cn1)S(C)(=O)=O [MF-DH-465, (4,4-difluoropiperidin-1-yl)(1-(6-(3-methyl-3-(methylsulfonyl)but-1-yn-1-yl)pyridin-3-yl)-1H-pyrrolo[2,3-b]pyridin-5-yl)methanone] | 100 to 1000 nM | 
O=C(c1ccc2c(c1)ncn2-c1cccc(Cl)c1)N1CC(F)C1 [MF-PGDH-106] | < 100 nM | 
O=C(c1cnc2c(c1)c(Cl)cn2-c1cccnc1)N1CCC(F)CC1 [MF-DH-135] | < 100 nM | 
N#Cc1ccc(-n2ccc3cc(C(=O)N4C[C@H](F)C[C@H](F)C4)cnc32)cc1 [MF-DH-417, 4-(5-((3R,5S)-3,5-difluoropiperidine-1-carbonyl)-1H-pyrrolo[2,3-b]pyridin-1-yl)benzonitrile] | 100 to 1000 nM and < 100 nM | 
CC(C)(O)CCC#Cc1nc2cc(C(=O)N3CCC(F)(F)CC3)cnc2n1-c1ccc(C#N)cc1 [MF-DH-544, 4-(6-(4,4-difluoropiperidine-1-carbonyl)-2-(5-hydroxy-5-methylhex-1-yn-1-yl)-3H-imidazo[4,5-b]pyridin-3-yl)benzonitrile] | 100 to 1000 nM | 
O=C(Nc1ccc(C(=O)N2CCCCC2)cc1)c1ccccc1Cl [MF-PGDH-088] | 100 to 1000 nM | 
O=C(NC1CNC1)c1ccc(-n2ccc3cc(C(=O)N4CCC(F)(F)CC4)cnc32)cc1 [MF-DH-420] | < 100 nM | 

Second part, the molecule after the results:

IC50 [1] | MLM + NADPH (% remaining at 45 min) [2] [%] | SMILES
< 100 nM | 97 | O=C(O)c1cccc(-n2ccc3cc(C(=O)N4CCC(F)(F)CC4)cnc32)c1 [MF-DH-507, 3-(5-(4,4-difluoropiperidine-1-carbonyl)-1H-pyrrolo[2,3-b]pyridin-1-yl)benzoic acid]
< 100 nM | 25 | CCC(CC)NC(=O)c1ccc(-n2ccc3cc(C(=O)N4CCC(F)(F)CC4)cnc32)cn1 [MF-DH-437, 5-(5-(4,4-difluoropiperidine-1-carbonyl)-1H-pyrrolo[2,3-b]pyridin-1-yl)-N-(pentan-3-yl) picolinamide]
< 100 nM | 110 | O=C(c1cnc2c(ccn2-c2ccc(-c3nn[nH]n3)cc2)c1)N1CCC(F)(F)CC1 [MF-DH-514, (1-(4-(2H-tetrazol-5-yl)phenyl)-1H-pyrrolo[2,3-b]pyridin-5-yl)(4,4-difluoropiperidin-1-yl)methanone]
< 100 nM | 26 | NC(=O)c1ccc(-n2cc(Cl)c3cc(C(=O)N4CCC(F)CC4)cnc32)cc1 [MF-DH-382, 4-(3-chloro-5-(4-fluoropiperidine-1-carbonyl)-1H-pyrrolo[2,3-b]pyridin-1-yl)benzamide]
< 100 nM | 51 | CCC(CC)NC(=O)c1cncc(-n2ccc3cc(C(=O)N4CCC(F)(F)CC4)cnc32)c1 [MF-DH-407, 5-(5-(4,4-difluoropiperidine-1-carbonyl)-1H-pyrrolo[2,3-b]pyridin-1-yl)-N-(pentan-3-yl)nicotinamide]
< 100 nM |  | N#Cc1ccc(-n2ccc3cc(C(=O)N4CC[C@H](F)C4)cnc32)cc1 (single isomer, unassigned) [MF-DH-574]
< 100 nM |  | NC(=O)CCc1nc2cc(C(=O)N3CCCCC3)ccc2n1-c1cccc(Cl)c1 [MF-PGDH-035, 3-(1-(3-chlorophenyl)-5-(piperidine-1-carbonyl)-1H-benzo[d]imidazol-2-yl)propanamide]
100 to 1000 nM |  | COc1ccc(-n2ccc3cc(C(=O)N4CCC(C(F)(F)F)CC4)cnc32)cc1 [MF-DH-324]
< 100 nM |  | O=C(c1ccc2c(c1)c(Cl)cn2-c1cccc(Cl)c1)N1CCCCC1 [MF-PGDH-005]
≥ 1000 nM |  | COc1ccc(-n2c(NC(C)=O)nc3cc(C(=O)N4CCC(F)CC4)cnc32)cc1 [MF-DH-116]
< 100 nM |  | Nc1cncc(-n2ccc3cc(C(=O)N4CCCCC4)cnc32)c1 [MF-DH-322]
< 100 nM |  | O=C(c1cnc2c(c(Cl)cn2-c2cnccn2)c1Cl)N1CCC(F)CC1 [MF-DH-147]
100 to 1000 nM |  | COc1ccc(-n2cnc3cc(C(=O)N4CC(F)C4)cnc32)cc1 [MF-DH-138]
< 100 nM |  | O=C(c1cnc2c(ccn2-c2cccc(CO)c2)c1)N1CCCCC1 [MF-DH-308]
< 100 nM |  | N#Cc1cc(-n2ccc3cc(C(=O)N4CCC(F)(F)CC4)cnc32)cnc1O [MF-DH-502]
< 100 nM |  | Cn1cc(-n2cc(Cl)c3cc(C(=O)N4CCC(F)CC4)cnc32)cn1 [MF-DH-140]
< 100 nM |  | NC(=O)c1ccc(-n2ccc3cc(C(=O)N4CCCCC4)cnc32)cc1 [MF-DH-299]
